Literature values in US20250213519A1, “SYNERGY FOR INCREASING INSULIN SENSITIVITY” (Board of Supervisors of Louisiana State University and …, priority 2022, published 2025).
Read-outs that look alike come from different tables or passages of the source.

Legend:
[1] = cited from earlier work
[2] = 25° C.; cited from earlier work
CDK5 = CDK5 (Homo sapiens, UniProt Q00535); details: cited from earlier work
primary islets = details: up to 100 μm, 24 h; cited from earlier work
GLP-1R = GLP-1R (Homo sapiens, UniProt P43220); details: cited from earlier work
Sequence of GLP-1R (P43220 24-463, species assumed): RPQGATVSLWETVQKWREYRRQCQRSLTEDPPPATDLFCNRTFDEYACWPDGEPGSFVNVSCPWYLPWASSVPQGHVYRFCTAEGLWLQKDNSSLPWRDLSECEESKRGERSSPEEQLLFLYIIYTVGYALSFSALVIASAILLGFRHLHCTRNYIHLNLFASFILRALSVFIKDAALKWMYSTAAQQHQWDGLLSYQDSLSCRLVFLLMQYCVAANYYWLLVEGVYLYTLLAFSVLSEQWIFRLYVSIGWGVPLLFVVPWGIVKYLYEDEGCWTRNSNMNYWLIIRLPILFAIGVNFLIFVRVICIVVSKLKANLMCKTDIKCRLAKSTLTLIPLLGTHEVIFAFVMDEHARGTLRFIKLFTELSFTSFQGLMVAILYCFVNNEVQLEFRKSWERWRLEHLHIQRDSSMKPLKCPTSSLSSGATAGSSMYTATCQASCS

rat islets = rat islets incubated in high glucose; cited from earlier work
[3] = rats orally administered 50 mg/kg and 100 mg/kg

Sequence of CDK5 (Q00535 whole entry, species assumed): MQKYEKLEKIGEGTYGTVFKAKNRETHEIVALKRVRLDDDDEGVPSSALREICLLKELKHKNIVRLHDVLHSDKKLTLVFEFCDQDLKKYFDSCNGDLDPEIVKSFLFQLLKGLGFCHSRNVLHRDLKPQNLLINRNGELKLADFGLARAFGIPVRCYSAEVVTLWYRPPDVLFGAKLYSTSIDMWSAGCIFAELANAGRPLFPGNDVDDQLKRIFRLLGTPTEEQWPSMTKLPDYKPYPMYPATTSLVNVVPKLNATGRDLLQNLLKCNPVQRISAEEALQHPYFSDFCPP
Sequence of CDK5 (Q15078 whole entry partner, species assumed): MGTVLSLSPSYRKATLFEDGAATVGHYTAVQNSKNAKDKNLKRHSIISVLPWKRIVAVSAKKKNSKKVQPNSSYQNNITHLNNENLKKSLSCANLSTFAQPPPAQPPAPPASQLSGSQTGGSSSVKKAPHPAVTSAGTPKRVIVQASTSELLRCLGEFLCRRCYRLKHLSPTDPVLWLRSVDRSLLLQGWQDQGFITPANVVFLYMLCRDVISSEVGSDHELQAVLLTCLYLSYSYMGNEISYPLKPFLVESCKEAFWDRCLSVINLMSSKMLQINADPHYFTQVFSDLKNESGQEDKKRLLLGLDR

For `O=c1c(O)c(-c2cc(O)c(O)c(O)c2)oc2cc(O)cc(O)c12` [myricetin], the “AUC0-∞” value ([1]; rat, i.v., 0.5 mg/kg) is listed as 1452.85 ± 170.30 ng·h/mL, the CL ([1]; rat, i.v., 0.5 mg/kg) is listed as 5.83 ± 0.83 mL/min/kg and the Cmax ([1]; rat, i.v., 0.5 mg/kg) is listed as 2232.16 ± 856.36 ng/mL. For the same compound, the Tmax ([1]; rat, i.v., 0.5 mg/kg) was 0 (pre-dose) h, the Vd ([1]; rat, i.v., 0.5 mg/kg) was 4.12 ± 1.52 L/kg and the t1/2 ([1]; rat, i.v., 0.5 mg/kg) was 6.99 ± 1.94 h. The “AUC0-∞” value ([1]; rat, p.o., 50 mg/kg) was 13,731.13 ± 5,574.58 ng · h/mL, the Bioavailability ([1]; rat, p.o., 50 mg/kg) was 9.62% and the Cmax ([1]; rat, p.o., 50 mg/kg) was 1488.75 ± 200.78 ng/mL. The Tmax ([1]; rat, p.o., 50 mg/kg) was 6.4 ± 0.89 h, the t1/2 ([1]; rat, p.o., 50 mg/kg) was 2.78 ± 0.81 h and the “AUC0-∞” value ([1]; rat, p.o., 100 mg/kg) was 28,081.62 ± 10,982.45 ng · h/mL. For the same compound, the Bioavailability ([1]; rat, p.o., 100 mg/kg) was 9.74%, the Cmax ([1]; rat, p.o., 100 mg/kg) was 2611.76 ± 1019.58 ng/mL and the Tmax ([1]; rat, p.o., 100 mg/kg) was 5.2 ± 3.03 h. For the same compound, the t1/2 ([1]; rat, p.o., 100 mg/kg) was 3.79 ± 0.75 h, the oral bioavailability [1, 3] was “approximately 10%” and the “time to maximal concentration (Tmax)” value [1, 3] was 6.5 h. The stability half-life [2] was 23 h, the “CDK5 kinase activity inhibition EC50 (in words)” value (CDK5) was “low micromolar range” and the EC50 (CDK5; read-out: CDK5 inhibition EC50) was 71 µM. The “viability of primary islets” value (primary islets) was “no loss of viability”, the GLP-1R agonist activity (GLP-1R) was “activity as a GLP-1R agonist at low micromolar concentrations” and the insulin release (rat islets) was “stimulated insulin release”.
